# Reference: patent publication US20110319347A1, “ANTIOXIDANT AGENT” (priority 2009, published 2011)
# Columns and labels:
# ddY mice = experiment: Acute dermal toxicity study of mimosine cream; assay type: in vivo; conditions: cream applied to shaved trunk twice a day for three days; skins surveyed at day 5
# Description: Vegetable emulsified wax (emulsifying wax, Orangeflower Inc., ingredients: stearyl alcohol, polysorbate 60) and oil (edible olive oil, Ajinomoto Co., Inc.) were completely melted in hot water (50° C.). Warm water (ultrapure water) was added thereto, and the mixture was mixed. An aqueous solution of mimosine or mimosine-introduced peptide was added thereto, and the mixture was completely mixed up. The obtained mixture was stored at 4° C. until use in the animal experiment.
# The left and right sides of the trunk of ddY mice (9-week-old, male, 6 mice in each group) were shaved with clippers under anesthesia with ether. […] Any special changes were not observed. […] Therefore, it is thought that mimosine and mimosine-introduced peptide can be utilized in the cosmetic field.
# [1] = β-carotene bleaching method (carotene-linoleic acid autoxidation); assay type: biochemical; conditions: for BHT-Relative Antioxidant Ability (%) β-Carotene Method: sample concentration 5 μM, 50 minutes at 50° C., absorbance at 492 nm, relative to 5 μM BHT; for Antioxidant ability (β-carotene method) compared in words with BHT or Pro-His-His: 5 μM
# Text: (§1) The antioxidant action of a peptide may be determined by a known method such as DPPH method or β-carotene bleaching method (see, e.g., Chen, H M., Muramoto, K., Yamauchi, F., and Nokihara, K., J. Agric. Food Chem., 44, 2619-2623, 1996. Antioxidant Activity of Designed Peptides Based on the Antioxidative Peptide Isolated from Digests of a Soybean Protein). DPPH method is to measure radical scavenging ability using 1,1-diphenyl-2-picrylhydrazyl (DPPH). […] In addition, the level of an antioxidant action can be evaluated by the degree of decrease of absorbance. β-carotene bleaching method is to calculate antioxidant ability of an analyte by autoxidizing a mixture of β-carotene, linoleic acid and the analyte and measuring suppression of β-carotene oxidization. […] In addition, the level of an antioxidant action can be evaluated by the degree of decrease of absorbance. Such known evaluation methods as described above reflect a part of antioxidant mechanisms which act in a living body in parallel.
# β-carotene was dissolved in chloroform to prepare 1 mg/mL solution. Linoleic acid was dissolved in chloroform to prepare 0.1 g/mL solution. Tween 40 was dissolved in chloroform to prepare 0.2 g/mL solution. Into 100 mL recovery flasks, 0.15 mL of β-carotene solution in chloroform, 0.1 mL of linoleic acid solution in chloroform, and 0.3 mL of Tween 40 solution in chloroform were aliquoted, and the mixed solution was evaporated to dryness with an evaporator until the smell of chloroform was completely disappeared. The dried mixture was dissolved in 30 mL of pure water, and 2.7 mL of 0.2 M phosphate buffer (pH 6.8) was further added thereto, followed by gentle stirring to prepare carotene-linoleic acid solution. Next, the peptides obtained in Example 1 were dissolved in ethanol to prepare 1 mL of 0.05 mM peptide solutions, respectively.
# Thereafter, 0.45 mL of carotene-linoleic acid solution and 0.05 mL of undiluted sample solution were mixed and stirred (sample concentration: 5 μM), and the reaction was allowed to proceed for 50 minutes at 50° C. Five minutes and 50 minutes after the start of the reaction, the absorbance at OD 492 nm was measured with a UV-VIS spectrophotometer. For blanks, a blank solution was prepared using the same volume of distilled water instead of carotene-linoleic acid solution, and the absorbance of the blank solution was measured via the same reaction condition. For controls, a control solution was prepared using ethanol instead of sample solutions, and the absorbance of the control solution was measured via the same reaction condition.
# The antioxidant ability was calculated according to the following formula.
# Antioxidant ability(%)=[1-−A5S−A50S)/(A5C−A50C)]×100
# A5C=The absorbance of the control after 5-minute reaction. A5S=The absorbance of the sample after 5-minute reaction. A50C=The absorbance of the control after 50-minute reaction. A50S=The absorbance of the sample after 50-minute reaction.
# (§2) The BHT-relative antioxidant ability was calculated according to the following formula.
# BHT-Relative Antioxidant Ability(%)=[AntOx(%)]/[5 μM BHT(%)]×100
# [2] = DPPH radical scavenging ability; assay type: biochemical; conditions: for BHT-Relative Antioxidant Ability (%) DPPH Method: sample concentration 500 μM, 50 minutes at room temperature, absorbance at 517 nm, relative to 500 μM BHT; for Radical scavenging ability (DPPH) compared in words with BHT or Pro-His-His: 500 μM
# Text: as §1
# Next, DPPH was dissolved in ethanol to prepare 10 mL of 0.1 mM DPPH-ethanol solution, and 0.15 mL of this DPPH-ethanol solution and 0.15 mL of the above-prepared undiluted solution were mixed and stirred (the sample concentration: 500 μM). The reaction was allowed to proceed for 50 minutes at room temperature, and the absorbance at 517 nm wavelength was measured with a UV-VIS spectrophotometer (JASCO V-570). For blanks, a blank solution was prepared using the same volume of ethanol instead of DPPH, and the absorbance of the blank solution was measured via the same reaction condition. For controls, a control solution was prepared using ethanol instead of sample solutions, and the absorbance of the control solution was measured via the same reaction condition.
# The DPPH radical scavenging ability was calculated according to the following formula.
# Radical Scavenging Ability AntOx(%)=(Acon−Asam)/Acon×100
# Acon=The absorbance of the control after being left to stand for 50 minutes. Asam=The absorbance of the sample after being left to stand for 50 minutes.
# as §2
# BHT-Relative Antioxidant Ability(%)=[AntOx(%)]/[500 μM BHT(%)]×100
# Mushroom tyrosinase = Mushroom tyrosinase (Agaricus bisporus, UniProt C7FF04); experiment: Tyrosinase inhibitory activity with L-DOPA as substrate; assay type: biochemical; conditions: for IC50: pH 6.8, room temperature, absorbance at 475 nm for 60 seconds, read-out: IC50 for tyrosinase inhibition
# Sequence of Mushroom tyrosinase (G1K3P4 entry or part of it): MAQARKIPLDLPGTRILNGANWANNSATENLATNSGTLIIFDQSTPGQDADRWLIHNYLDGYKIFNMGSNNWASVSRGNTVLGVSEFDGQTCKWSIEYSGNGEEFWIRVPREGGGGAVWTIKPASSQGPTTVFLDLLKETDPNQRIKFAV
# Sequence of Mushroom tyrosinase (C7FF04 1-392): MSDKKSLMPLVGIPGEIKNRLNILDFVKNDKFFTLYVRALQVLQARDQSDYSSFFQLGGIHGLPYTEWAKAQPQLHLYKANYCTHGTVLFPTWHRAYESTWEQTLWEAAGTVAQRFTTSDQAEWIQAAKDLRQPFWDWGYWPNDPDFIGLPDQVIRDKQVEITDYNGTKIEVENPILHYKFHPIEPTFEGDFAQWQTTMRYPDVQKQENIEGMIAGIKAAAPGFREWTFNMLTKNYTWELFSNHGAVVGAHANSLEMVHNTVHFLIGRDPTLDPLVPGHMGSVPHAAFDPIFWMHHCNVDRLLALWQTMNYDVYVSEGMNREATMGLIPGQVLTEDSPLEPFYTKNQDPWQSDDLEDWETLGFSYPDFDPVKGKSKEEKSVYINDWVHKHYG
# Description: Tyrosinase inhibitory activity of a peptide can be evaluated by a known method using tyrosinase and its substrate such as L-dihydroxyphenylalanine (L-DOPA) or L-tyrosine. Specific examples of the evaluation method are described in the Examples below. For example, a peptide whose tyrosinase inhibitory activity should be measured, tyrosinase, and its substrate are dissolved in phosphate buffer, respectively (the peptide and tyrosinase may be dissolved in the same solution). Immediately after mixing the three components, change in absorbance at 475 nm is measured with a spectrophotometer. Since melanin has an absorption maximum at 475 nm, absorbance at 475 nm increases if melanin is synthesized from L-DOPA by tyrosinase. […] Therefore, the tyrosinase inhibitory activity of a peptide can be evaluated based on the change in absorbance.
# Mushroom tyrosinase (SIGMA-Aldrich, Missouri, USA)
# L-DOPA (SIGMA-Aldrich, Missouri, USA)
# 50 mM Sodium phosphate buffer (pH 6.8)
# Using 50 mM sodium phosphate buffer (pH 6.8), 5 mM L-DOPA solution, mushroom tyrosinase solution (2 units/μL) and 1 mM inhibitor stock solution (×10) were prepared.
# Reaction Solution A (25 μL of 5 mM DOPA solution; 75 μL of 50 mM sodium phosphate buffer (pH 6.8)) and Reaction Solution B (25 μL of inhibitor stock solution; 12.5 μL of tyrosinase solution; 112.5 μL of 50 mM sodium phosphate buffer (pH 6.8)) were prepared in two Eppendorf tubes, respectively. Reaction Solutions A and B were mixed just before the measurement, and the absorbance at 475 nm wavelength was measured with a spectrophotometer (V-570, Jasco, Tokyo, Japan). The measurement was carried out for 60 seconds at room temperature, and the absorbance was recorded every 1 second. This operation was repeated 3 times for each sample concentration.
# The tyrosinase activity ratio at each inhibitor concentration was calculated based on the control (tyrosinase alone) value, and IC50s for tyrosinase inhibition of the samples were calculated using Ngraph. The fitting formula below was used in the calculation.
# y=a−(a−b)/(1+(x/c)̂d (a=Minimum value of y; b=Maximum value of y; c=[…]; d=Variable)
Molecule,Acute dermal toxicity (skin condition) (ddY mice),BHT-Relative Antioxidant Ability (%) β-Carotene Method [1],BHT-Relative Antioxidant Ability (%) DPPH Method [2],Antioxidant ability (β-carotene method) compared in words with BHT or Pro-His-His [1],IC50 (Mushroom tyrosinase),Radical scavenging ability (DPPH) compared in words with BHT or Pro-His-His [2],Tyrosinase inhibitory activity compared in words with mimosine or kojic acid (Mushroom tyrosinase)
NC(Cn1ccc(=O)c(O)c1)C(=O)O (stereo not drawn) [Mimosine],neither mimosine nor a mimosine-introduced peptide has an acute dermal toxicity,–,–,–,–,–,–
"Cc1cc(C(C)(C)C)c(O)c(C(C)(C)C)c1 [BHT, butylated hydroxytoluene, reference compound]",–,100.00%,100.00%,–,–,–,–
"Leu-His-Trp [Sample 8X, reference compound]",–,46.79%,41.92%,–,–,–,–
Mim-Arg-Tyr [Sample 2],–,66.77%,77.89%,–,–,–,–
MimLys-Tyr [Sample 4],–,81.96%,75.33%,–,–,–,–
Pro-Mim-His [Sample 7],–,73.07%,37.04%,–,–,–,–
Mim-Pro-His-His [Sample 1],–,93.86%,111.67%,at the same level as BHT,16.4 µM,at the same level as or higher than BHT,–
Mim-His-Tyr [Sample 3],–,95.80%,84.88%,at the same level as BHT,8.84 µM,–,–
Pro-His-Mim [Sample 10],–,79.55%,26.45%,–,–,–,–
"Arg-His-Trp [Sample 5X, reference compound]",–,41.37%,11.26%,–,–,–,–
Leu-Trp-Mim [Sample 9],–,77.32%,41.02%,–,–,–,–
Mim-Trp-Trp [Sample 6],–,72.56%,117.34%,–,28.2 µM,at the same level as or higher than BHT,–
"Pro-His-Tyr [Sample 3X, reference compound]",–,33.56%,9.63%,–,–,–,–
"Leu-Trp-Trp [Sample 6X, reference compound]",–,28.28%,73.27%,–,–,–,–
Mim-His-Trp [Sample 5],–,92.66%,99.06%,at the same level as BHT,3.02 µM,at the same level as or higher than BHT,higher than kojic acid
"Pro-His-His [Sample 1X, reference compound]",–,63.00%,23.01%,–,–,–,–
"Tyr-Lys-Tyr [Sample 4X, reference compound]",–,18.88%,9.55%,–,–,–,–
"Tyr-Arg-Tyr [Sample 2X, reference compound]",–,7.78%,11.31%,–,–,–,–
Leu-His-Mim [Sample 8],–,77.79%,26.45%,–,–,–,–
